From PubChem BioAssay (NCI)
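48-hour exposure; five concentrations; linearly interpolated endpoints. GI50: concentration for 50% inhibition of growth. The concentration for full growth arrest is given as TGI.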

How the values were obtained:
Assay in all cases: NCI tumour cell line growth inhibition, 48 h
SW-620 colon = tested on: SW-620 colon
CAKI-1 renal = tested on: CAKI-1 renal
SK-MEL-28 melanoma = tested on: SK-MEL-28 melanoma

SMILES	TGI (SW-620 colon)	TGI (CAKI-1 renal)	TGI (SK-MEL-28 melanoma)	GI50 (SK-MEL-28 melanoma)
O=C1/C(=C/c2ccc(Cl)cc2)N=C(c2ccccc2)N1C1Nc2cc3c(cc2S1)NC(N1C(=O)/C(=C/c2ccc(Cl)cc2)N=C1c1ccccc1)S3 (stereo not given)	> 100 µM	> 100 µM	> 100 µM	
Cn1c(=O)c2nc3nnc(C#N)c(N)n3c2n(C)c1=O		> 100 µM	> 100 µM	
O=c1oc2cccnc2n1CCN1CCN(c2ccc(Oc3ccccc3)cc2)CC1	> 100 µM	> 100 µM	> 100 µM	
BrCCC[P+](c1ccccc1)(c1ccccc1)c1ccccc1	> 100 µM	> 100 µM	> 100 µM	
Fc1ccc(NCn2nc(COc3ccccc3Cl)n(/N=C/c3ccc(-c4ccc(Cl)cc4Cl)o3)c2=S)cc1Cl	> 100 µM	> 100 µM	> 100 µM	
COc1cc(C2c3[nH]c4ccc(F)cc4c3C[C@H]3COC(=O)N23)cc(OC)c1O (stereo not given in full)		44.7 µM	33.6 µM	
CC(=O)O[C@H]1[C@@H](OC2CCCC2(c2ccccc2)c2ccccc2)O[N+]([O-])=C[C@@]12COCc1cc3c(cc12)OCO3 (stereo not given in full)	> 100 µM	> 100 µM	> 28.4 µM	
c1nc(SSc2ncnc3nc[nH]c23)c2[nH]cnc2n1	> 100 µM	1.07 µM	> 100 µM	
O=C1C=CC[C@H](/C=C/C[C@@H](O)C[C@H](O)/C=C/c2ccccc2)O1	27.4 µM	19.9 µM	30.8 µM	
COc1cc(/C=C/c2sc3ccccc3[n+]2C)ccc1N(C)C	25.8 µM	> 100 µM	25.7 µM	12.4 µM
O=C(Nc1nncs1)NS(=O)(=O)n1cnc2ccccc21	> 100 µM	> 100 µM	> 100 µM	
CNC(=O)c1n[nH]n(Cc2ccccc2)c1=S	> 100 µM	> 100 µM	> 100 µM	
N#CC(C#N)=Cc1ccc(C=C2SC3=C(SCCS3)S2)s1	> 100 µM	> 100 µM	> 100 µM	
COCC(=O)OC1CCn2c1nc1c2C(=O)C(C)=C(NC(C)=O)C1=N (stereo not given)	6.12 µM	23.2 µM	10.6 µM	
COc1ccccc1-c1nc2ccccc2c(=O)[nH]1	> 100 µM	> 100 µM		
CCN(CC)CCNc1ccc2ncn3c4c(OC)cccc4c(=O)c1c23	15.9 µM	> 100 µM	21.7 µM	
Clc1ccc2c(c1)CC1C[N+]3=C(CCCC3)C1=C2 (stereo not given)	> 100 µM	> 100 µM	> 100 µM	
O=C(O)c1cncc(C(=O)O)c1	> 100 µM	> 100 µM	> 100 µM	

SMILES	TGI (SW-620 colon)	TGI (CAKI-1 renal)	TGI (SK-MEL-28 melanoma)	GI50 (SK-MEL-28 melanoma)
O=c1c[n+](-c2ccccc2)[nH]o1	> 100 µM	> 100 µM	> 100 µM	
COC(=O)c1cc(-c2ccc(-c3ccc(O)cc3)cc2)cc(-c2ccc(-c3ccc(O)cc3)cc2)c1	21.9 µM	29.5 µM	25.7 µM	
CC(=O)N1CC[N+](C)(CCCCN2c3ccccc3Sc3cc(N=[N+]=[N-])ccc32)CC1	> 100 µM	> 100 µM	> 100 µM	
O=C1N(CN2CCOCC2)CN(CN2CCOCC2)C(=O)N1Cc1ccccc1	54.9 µM	92.8 µM	34.8 µM	
NC1=NN(c2ccccc2)C2(c3ccncc3C(=O)O)C1C(N)=NN2c1ccccc1 (stereo not given)	> 100 µM	> 100 µM	> 100 µM	
COc1ccc(C(=O)Cn2c(C(C)=O)nc3ccccc32)cc1	> 100 µM	> 100 µM	> 100 µM	
CN(C)CCCNC(=O)c1cc(NC(=O)c2cc(NC(=O)[C@H]3C[C@@H]3C(=O)Nc3cc(C(=O)Nc4cc(C(=O)NCCCN(C)C)n(C)c4)n(C)c3)cn2C)cn1C	> 100 µM	> 100 µM		
CC(=O)OCC1OC(n2c3c(cc(C#N)c2=S)CCCCCC3)C(OC(C)=O)C(OC(C)=O)C1OC(C)=O (stereo not given)			> 100 µM	
C[N+](C)(C)C1(C(=O)[O-])CC1	> 100 µM		> 100 µM	
Cc1nn(-c2ccccc2)c2c1C(c1cc3ccccc3nc1Cl)NC(=S)N2 (stereo not given)	98.4 µM	> 100 µM		
c1cc2cc(c1)CN1CCNCCN(CCNCC1)Cc1cccc(c1)CN1CCNCCN(CCNCC1)C2	> 100 µM		> 100 µM	
c1ccc(/N=N\Nc2ccc(-c3nc4ccccc4o3)cc2)nc1	42.1 µM		> 100 µM	
COC1=CC(=O)c2c(O)ccc(O)c2C1=O	17.7 µM		3.71 µM	
Cc1cc(N(CCC#N)CCC#N)ccc1/C(N=Nc1ccccc1)=N\NC(=O)c1ccccc1		72.6 µM		
COc1cc(C=Nc2ccc(S(N)(=O)=O)cc2)cc(OC)c1		> 50 µM	> 50 µM	
CC(=O)N1C(C(=O)NNc2ccccc2)CSC1c1ccccc1 (stereo not given)	> 100 µM	> 100 µM		
C=CCOC(=O)CCCCCCCCCCCCCCCOC(=O)c1c(CCC[C@@H](C)O[Si](C)(C)C(C)(C)C)nc(=O)n2c1CC[C@H]2CC1(CC/C=C\[C@H](CC)O[Si](C(C)C)(C(C)C)C(C)C)OCCO1		> 100 µM	> 100 µM	
